Laboratory results taken from a compilation of properties of binary mixtures (doi:10.1039/c8ra04127j).

Assay: xn = mol fraction of the nth substance listed
Details: 100 kPa

C[N+](C)(C)CCC[n+]1ccccc1.N#C[N-]C#N.N#C[N-]C#N + CC#N
viscosity [mPa·s]
Details | x1 = 0.0999 | x1 = 0.1999 | x1 = 0.2998 | x1 = 0.3997 | x1 = 0.4999 | x1 = 0.6002 | x1 = 0.7001 | x1 = 0.7998 | x1 = 0.8997 | x1 = 1
283.15 K | 4.14 | 14.2 | 52.8 | 131 | 245 | 474 | – | 1385 | 2375 | 7557
288.15 K | 3.75 | 12.3 | 42.2 | 98 | 175 | 321 | 554 | 848 | – | –
293.15 K | 3.45 | – | 34.5 | – | 129 | 226 | 371 | 562 | 850 | –
298.15 K | 3.21 | 9.55 | 28.7 | 59.8 | 98 | 166 | 264 | 382 | – | 1306
303.15 K | – | 8.55 | – | 48.3 | 76.3 | 125 | 192 | – | 392 | 831
308.15 K | 2.83 | – | 21 | 39.6 | 61.3 | 96.7 | 146 | 200 | 286 | 558
313.15 K | 2.67 | 7.03 | 18.2 | 33.3 | 50 | 76.6 | 109 | 145 | 213 | 386
318.15 K | 2.54 | 6.43 | – | 28.2 | 43.5 | 63.9 | 89.7 | 118 | 161 | 281
323.15 K | – | 5.91 | 14.1 | 24.2 | 36.7 | 51.7 | 70.9 | 91.6 | 123 | –
328.15 K | 2.32 | 5.47 | 12.5 | 21 | 30.6 | 43.3 | 57.6 | 73.2 | 95.6 | 162
333.15 K | 2.23 | – | 11.2 | 18.4 | 27.6 | – | 48.5 | 60.3 | 75.3 | 127

CC#N + C[N+](C)(C)CCC[N+]1(C)CCCCC1.N#C[N-]C#N.N#C[N-]C#N
x2 = 0
Details | viscosity [mPa·s]
293.15 K | 0.364
308.15 K | 0.32
313.15 K | 0.307
318.15 K | 0.296
323.15 K | 0.285
328.15 K | 0.275

C[N+](C)(C)CCC[N+]1(C)CCCCC1.N#C[N-]C#N.N#C[N-]C#N + CC#N
viscosity [mPa·s]
Details | 288.15 K | 293.15 K | 298.15 K | 303.15 K | 308.15 K | 313.15 K | 318.15 K | 323.15 K | 328.15 K | 333.15 K
x1 = 0.0999 | 3.99 | – | 3.42 | 3.18 | – | 2.81 | – | 2.54 | 2.43 | 2.32
x1 = 0.2001 | 17.4 | 15.1 | 13.2 | 11.6 | 10.3 | – | – | 7.49 | – | 6.16
x1 = 0.3001 | 56.9 | 45.9 | – | 31.4 | – | 22.7 | 19.6 | – | 15.4 | 13.7
x1 = 0.3998 | 146 | 112 | 87.3 | – | – | 46.6 | 39.3 | 33.3 | 28.6 | 24.8
x1 = 0.5002 | 334 | 243 | – | 139 | – | 87 | – | 58.2 | – | –
x1 = 0.6 | 679 | 466 | 322 | 246 | 185 | 145 | 114 | – | – | 62.3
x1 = 0.7001 | 1177 | 729 | 508 | 370 | 274 | 210 | – | – | 105 | 85.5
x1 = 0.7996 | – | 1390 | 900 | 623 | 449 | 329 | 246 | 193 | 152 | 122
x1 = 0.8998 | 3992 | 2477 | 1610 | 1085 | 760 | – | 400 | 303 | 233 | –
x1 = 1 | 7553 | – | – | 1837 | 1224 | 856 | – | 460 | 350 | 270

CC#N + C[N+](C)(C)CCC[n+]1ccccc1.N#C[N-]C#N.N#C[N-]C#N
x2 = 0
Details | viscosity [mPa·s]
283.15 K | 0.401
288.15 K | 0.382
293.15 K | 0.364
298.15 K | 0.348
303.15 K | 0.333
308.15 K | 0.32
313.15 K | 0.307
318.15 K | 0.296
323.15 K | 0.285
